Earlier results on one compound are cited in patent US12582584B2, “Oxidizer and acid based system and regimen for enhancing skin appearance” (L'OREAL, priority 2021, dated 2026).

Structures are written as SMILES.

The conditions of this data set: acute oral toxicity, mutagenicity, skin irritation, skin sensitization, phototoxicity.

In the case of `CC(c1ccccc1)c1ccc(O)cc1O` (stereo not shown) [Phenylethyl resorcinol], the “Adverse effects in basic toxicological tests” value is given as “has not shown adverse effects”.
